Measurements taken from article PMC9681850, “Structural basis of synthetic agonist activation of the nuclear receptor REV-ERB” (Nature Communications, 2022).
“And” between values parts separate entries of the source, which are not always exact repeats. Equal values may be shown once.

Experiments:
[1] = target: T1, full length human REV-ERBα (Homo sapiens, UniProt P20393); test: cell-based two-hybrid luciferase reporter assay (REV-ERBα-FL/GAL4-DBD + NCoR-Vp16, HEK UAS-luc cells); details: HEK293 UAS-luc cells
T1 construct: expressed in transfected cells; host or cells: HEK293 cells with stably integrated GAL4-UAS luciferase reporter
T1 sequence (P20393 whole entry, the tested form may be a part): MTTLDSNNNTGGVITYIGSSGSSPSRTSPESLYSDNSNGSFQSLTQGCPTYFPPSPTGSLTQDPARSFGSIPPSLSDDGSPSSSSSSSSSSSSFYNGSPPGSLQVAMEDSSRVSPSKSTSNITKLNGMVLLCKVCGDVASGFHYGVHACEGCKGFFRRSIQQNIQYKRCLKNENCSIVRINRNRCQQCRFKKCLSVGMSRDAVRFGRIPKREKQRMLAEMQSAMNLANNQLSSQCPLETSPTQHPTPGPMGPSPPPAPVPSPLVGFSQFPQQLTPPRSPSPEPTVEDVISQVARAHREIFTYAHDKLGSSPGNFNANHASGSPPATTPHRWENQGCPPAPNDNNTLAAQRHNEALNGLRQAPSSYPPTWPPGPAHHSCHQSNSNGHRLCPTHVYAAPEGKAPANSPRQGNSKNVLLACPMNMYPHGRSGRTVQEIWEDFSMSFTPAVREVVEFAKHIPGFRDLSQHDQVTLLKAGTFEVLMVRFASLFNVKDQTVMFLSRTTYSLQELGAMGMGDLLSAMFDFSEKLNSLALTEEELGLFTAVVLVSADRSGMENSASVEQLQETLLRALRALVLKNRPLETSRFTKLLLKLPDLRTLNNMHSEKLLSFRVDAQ
T1 sequence (O75376 whole entry partner, the tested form may be a part): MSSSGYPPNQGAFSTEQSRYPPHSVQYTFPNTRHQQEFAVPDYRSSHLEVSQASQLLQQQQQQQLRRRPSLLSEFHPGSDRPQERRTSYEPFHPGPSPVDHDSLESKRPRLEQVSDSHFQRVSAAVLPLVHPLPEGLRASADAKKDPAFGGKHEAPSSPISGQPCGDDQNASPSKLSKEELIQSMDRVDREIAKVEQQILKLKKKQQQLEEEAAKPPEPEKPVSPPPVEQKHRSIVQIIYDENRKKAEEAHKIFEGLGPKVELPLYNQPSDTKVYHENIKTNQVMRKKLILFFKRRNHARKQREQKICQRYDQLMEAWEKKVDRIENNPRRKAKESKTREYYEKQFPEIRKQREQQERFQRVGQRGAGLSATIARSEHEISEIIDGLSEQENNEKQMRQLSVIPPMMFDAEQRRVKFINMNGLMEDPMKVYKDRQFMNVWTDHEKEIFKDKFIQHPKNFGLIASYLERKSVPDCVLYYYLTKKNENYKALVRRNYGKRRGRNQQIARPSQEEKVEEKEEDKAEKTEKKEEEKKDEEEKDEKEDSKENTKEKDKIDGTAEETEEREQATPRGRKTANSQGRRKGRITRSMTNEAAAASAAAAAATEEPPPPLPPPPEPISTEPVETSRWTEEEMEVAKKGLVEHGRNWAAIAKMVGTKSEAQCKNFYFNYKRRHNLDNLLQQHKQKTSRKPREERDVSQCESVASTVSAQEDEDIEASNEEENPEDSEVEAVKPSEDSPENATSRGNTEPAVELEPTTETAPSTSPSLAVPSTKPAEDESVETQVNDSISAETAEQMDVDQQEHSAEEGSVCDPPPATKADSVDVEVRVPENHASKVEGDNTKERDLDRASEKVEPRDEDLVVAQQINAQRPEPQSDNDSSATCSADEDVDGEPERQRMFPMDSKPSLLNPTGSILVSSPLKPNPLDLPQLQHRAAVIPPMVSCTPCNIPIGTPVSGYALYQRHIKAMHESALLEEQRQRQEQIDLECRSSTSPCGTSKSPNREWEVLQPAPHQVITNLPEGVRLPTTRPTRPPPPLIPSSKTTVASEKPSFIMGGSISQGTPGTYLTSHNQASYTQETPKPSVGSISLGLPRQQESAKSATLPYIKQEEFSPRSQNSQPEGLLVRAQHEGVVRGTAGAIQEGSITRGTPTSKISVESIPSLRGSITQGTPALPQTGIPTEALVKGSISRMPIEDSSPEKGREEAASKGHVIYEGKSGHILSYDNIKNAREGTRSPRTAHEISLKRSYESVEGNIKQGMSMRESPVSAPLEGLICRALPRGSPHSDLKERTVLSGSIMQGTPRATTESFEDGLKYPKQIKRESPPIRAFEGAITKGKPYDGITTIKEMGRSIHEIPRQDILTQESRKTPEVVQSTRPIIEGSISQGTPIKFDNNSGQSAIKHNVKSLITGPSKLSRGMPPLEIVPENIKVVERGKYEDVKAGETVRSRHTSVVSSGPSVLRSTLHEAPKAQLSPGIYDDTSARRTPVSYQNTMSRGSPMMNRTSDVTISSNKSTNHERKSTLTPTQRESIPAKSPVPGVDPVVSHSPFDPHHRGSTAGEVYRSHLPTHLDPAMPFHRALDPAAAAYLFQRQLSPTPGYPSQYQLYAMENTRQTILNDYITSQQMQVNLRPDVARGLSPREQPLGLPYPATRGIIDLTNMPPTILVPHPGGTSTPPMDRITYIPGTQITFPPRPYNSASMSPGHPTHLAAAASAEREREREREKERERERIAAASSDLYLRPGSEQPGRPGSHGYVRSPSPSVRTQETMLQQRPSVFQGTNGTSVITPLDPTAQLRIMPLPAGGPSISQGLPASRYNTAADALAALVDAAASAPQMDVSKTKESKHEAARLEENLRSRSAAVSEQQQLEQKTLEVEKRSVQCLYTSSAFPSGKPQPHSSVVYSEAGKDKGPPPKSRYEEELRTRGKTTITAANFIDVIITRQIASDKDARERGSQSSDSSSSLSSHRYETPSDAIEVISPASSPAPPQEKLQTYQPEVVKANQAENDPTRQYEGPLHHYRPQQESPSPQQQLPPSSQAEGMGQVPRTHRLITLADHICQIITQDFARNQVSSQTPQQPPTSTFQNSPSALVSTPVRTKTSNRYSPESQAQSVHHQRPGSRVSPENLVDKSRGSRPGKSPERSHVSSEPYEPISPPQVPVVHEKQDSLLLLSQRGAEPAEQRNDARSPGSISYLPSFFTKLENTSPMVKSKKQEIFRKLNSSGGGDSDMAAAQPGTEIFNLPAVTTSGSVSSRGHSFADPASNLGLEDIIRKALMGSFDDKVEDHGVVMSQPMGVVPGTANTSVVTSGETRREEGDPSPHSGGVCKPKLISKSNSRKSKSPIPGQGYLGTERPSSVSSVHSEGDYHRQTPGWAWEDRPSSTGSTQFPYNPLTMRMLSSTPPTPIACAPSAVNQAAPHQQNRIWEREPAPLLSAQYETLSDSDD

[2] = system: proliferating C2C12 mouse myoblast cells; test: cell viability by crystal violet staining; type: cell-based; details: for cell viability (Fig. 2b source data): crystal violet, normalized to DMSO, single replicates; for reduction in cellular viability: proliferating C2C12 cells
Method: Cellular viability was tested in two cell types, human hepatocarcinoma HepG2 cells and proliferating C2C12 mouse myoblast cells.
Data are presented as mean ± SEM. Source data are available as a Source Data file.
The human hepatocellular carcinoma cell line, HepG2 cells (ATCC HB-8065), were cultured in 10% FBS 1% L-Glu MEM at 37 °C in a humidified atmosphere of 5% CO2. Prior to RNA extraction cells were treated with either DMSO or REV-ERB agonist for 24 h. The C2C12 proliferating mouse myoblast cells (ATCC, CRL-1772) were cultured in 10% FBS DMEM at 37 °C in a humidified atmosphere of 5% CO2. Prior to RNA extraction cells were treated with either DMSO or REV-ERB agonist for 24 h. […]
[…] Media was removed, and cells were incubated with 0.5% crystal violet solution for 20 min at room temperature with mild agitation. Cells were washed four times with tap water before being air drying overnight. Cells were incubated in methanol for 20 min with mild agitation. Absorbance was read at 570 nm, and readings were normalized to vehicle (DMSO) treated cells.

[3] = system: 43 targets (GPCRs, ion channels, transporters, and other drug targets); test: NIMH PDSP radioligand displacement panel; type: binding; details: of the 43 targets assessed
Text: We assessed the specificity of STL1267 using both in house nuclear receptor Gal4-NR reporter assays and the NIMH Psychoactive Drug Screening Program (PDSP) assays. We assessed the specificity of STL1267 in the PDSP’s radioligand displacement assays, screening for binding to off-target GPCRs, ion channels, transporters, and other drug targets (Table S1). Of the 43 targets assessed in this panel, we observed no detectable binding in 41 of them. […] Additional assessment in serotonin transporter and kappa opioid receptor activity in a functional assay may be warranted to determine absolute specificity. […]
Receptor RLBA Ki Receptor activity
Suppl ementary Tabl e 1. Speci fi ci ty of STL1267. […]

- maximal efficacy for recruitment of NCoR-VP16 vs. SR9009 [1]: ~ 8 fold
- EC50 ([1]; 24 h, read-out: EC50, recruitment of NCoR-Vp16): 1800 nM
- number of targets with no detectable binding [3]: 41
Structure (SMILES): Clc1nnc2ccc(Oc3ccccc3-c3ccccc3)nn12 [STL1267]
- cell viability (Fig. 2b source data) ([2]; C2C12, 1 uM): 92.0631 and 77.3068 and 87.5705 and 94.4131 and 98.2145 and 106.232 and 102.707
- cell viability (Fig. 2b source data) ([2]; C2C12, 2 uM): 85.9463 and 90.0242 and 93.8256 and 90.5771 and 97.5579 and 103.433 and 103.26 and 102.949
- cell viability (Fig. 2b source data) ([2]; C2C12, 5 uM): 92.9616 and 90.6808 and 91.0609 and 85.0824 and 101.498 and 105.679 and 104.435 and 94.6204
- cell viability (Fig. 2b source data) ([2]; C2C12, 10 uM): 88.9874 and 85.3588 and 77.2722 and 82.9397 and 90.0242 and 92.8925 and 94.5859 and 92.7197
- cell viability (Fig. 2b source data) ([2]; C2C12, 20 uM): 77.9634 and 78.8964 and 75.3024 and 82.4905 and 83.4236 and 81.9721 and 84.5985 and 90.5771
- reduction in cellular viability ([2]; 10 μM): ~ 10%
- reduction in cellular viability ([2]; 20 μM): ~ 20%
